Assay results as given in ChEMBL document CHEMBL4130444, “1,4-Naphthoquinones as inhibitors of Itch, a HECT domain-E3 ligase, and tumor growth suppressors in multiple myeloma” (Eur J Med Chem, 2017).

How the values were obtained:
HCT-116 = experiment: Antiproliferative activity against human HCT116 cells incubated for 48 hrs by SRB assay; type: functional; conditions: HCT-116, 48 h
MDA-MB-231 = experiment: Antiproliferative activity against human MDA-MB-231 cells incubated for 48 hrs by SRB assay; type: functional; conditions: MDA-MB-231, 48 h

| Structure (SMILES) | GI50 (HCT-116) [µM] | GI50 (MDA-MB-231) [µM] |
| --- | --- | --- |
| O=C(Nc1ccc2ncccc2c1)c1ccc(CNC2=C(Cl)C(=O)c3ccccc3C2=O)cc1 | 6.8 | > 10 |
| O=C(Nc1nccs1)c1ccc(CNC2=C(Cl)C(=O)c3ccccc3C2=O)cc1 | > 10 | > 10 |
| O=C(Nc1ccc2[nH]ncc2c1)c1ccc(CNC2=C(Cl)C(=O)c3ccccc3C2=O)cc1 | > 10 | > 10 |
| O=C(Nc1ccccc1)c1ccc(CNC2=C(Cl)C(=O)c3ccccc3C2=O)cc1 | > 10 | > 10 |
| O=C(Nc1cccc2ncccc12)c1ccc(CNC2=C(Cl)C(=O)c3ccccc3C2=O)cc1 | > 10 | > 10 |
| O=C(Nc1nc2ccccc2[nH]1)c1ccc(CNC2=C(Cl)C(=O)c3ccccc3C2=O)cc1 | > 10 | 8.9 |
| O=C(Nc1ccccn1)c1ccc(CNC2=C(Cl)C(=O)c3ccccc3C2=O)cc1 | > 10 | > 10 |
| O=C(Nc1cnc2ccccc2c1)c1ccc(CNC2=C(Cl)C(=O)c3ccccc3C2=O)cc1 | > 10 | > 10 |
| O=C(Nc1cccc2[nH]ccc12)c1ccc(CNC2=C(Cl)C(=O)c3ccccc3C2=O)cc1 | > 10 | > 10 |
